Laboratory results from patent publication US11260023B2, “Topical compositions containing rofecoxib and methods of making and using the same” (BRIORI BIOTECH, LLC, priority 2020, dated 2022).

Experiments:
[1] = in vivo; cited from earlier work
[2] = Stability of rofecoxib by HPLC after storage for two weeks at 40° C. and 50° C.; type: physicochemical
Method: The stability of rofecoxib was assessed by HPLC after storage for two weeks at 40° C. and for two weeks at 50° C.

[3] = Solubility of rofecoxib in various solvents by High Performance Liquid Chromatography; type: physicochemical

Compound: CS(=O)(=O)c1ccc(C2=C(c3ccccc3)C(=O)OC2)cc1 [Rofecoxib]
- half-life [1]: 17 h
- Rofecoxib Concentration ([2]; Acetone, T = 0 weeks): 2.549 % w/w
- Rofecoxib Concentration ([2]; Acetone, T = 2 weeks 40° C. storage): 2.549 % w/w
- Rofecoxib Concentration ([2]; Acetone, T = 2 weeks 50° C. storage): 2.549 % w/w
- Rofecoxib Concentration ([2]; Benzyl alcohol, T = 0 weeks): 1.447 % w/w
- Rofecoxib Concentration ([2]; Benzyl alcohol, T = 2 weeks 40° C. storage): 1.474 % w/w
- Rofecoxib Concentration ([2]; Benzyl alcohol, T = 2 weeks 50° C. storage): 1.470 % w/w
- Rofecoxib Concentration ([2]; Diethylene glycol monoethyl ether, T = 0 weeks): 0.687 % w/w
- Rofecoxib Concentration ([2]; Diethylene glycol monoethyl ether, T = 2 weeks 40° C. storage): 0.672 % w/w
- Rofecoxib Concentration ([2]; Diethylene glycol monoethyl ether, T = 2 weeks 50° C. storage): 0.677 % w/w
- Rofecoxib Concentration ([2]; Dimethyl isosorbide, T = 0 weeks): 2.641 % w/w
- Rofecoxib Concentration ([2]; Dimethyl isosorbide, T = 2 weeks 40° C. storage): 2.515 % w/w
- Rofecoxib Concentration ([2]; Dimethyl isosorbide, T = 2 weeks 50° C. storage): 2.511 % w/w
- Rofecoxib Concentration ([2]; Ethyl acetate, T = 0 weeks): 0.465 % w/w
- Rofecoxib Concentration ([2]; Ethyl acetate, T = 2 weeks 40° C. storage): 0.479 % w/w
- Rofecoxib Concentration ([2]; Ethyl acetate, T = 2 weeks 50° C. storage): 0.476 % w/w
- Rofecoxib Concentration ([2]; N-methyl-2-pyrrolidone, T = 0 weeks): 5.046 % w/w
- Rofecoxib Concentration ([2]; N-methyl-2-pyrrolidone, T = 2 weeks 40° C. storage): 5.057 % w/w
- Rofecoxib Concentration ([2]; N-methyl-2-pyrrolidone, T = 2 weeks 50° C. storage): 5.055 % w/w
- Rofecoxib Concentration ([2]; PEG 400, T = 0 weeks): 1.013 % w/w
- Rofecoxib Concentration ([2]; PEG 400, T = 2 weeks 40° C. storage): 0.987 % w/w
- Rofecoxib Concentration ([2]; PEG 400, T = 2 weeks 50° C. storage): 0.993 % w/w
- Rofecoxib Concentration ([2]; Propylene Carbonate, T = 0 weeks): 3.471 % w/w
- Rofecoxib Concentration ([2]; Propylene Carbonate, T = 2 weeks 40° C. storage): 3.456 % w/w
- Rofecoxib Concentration ([2]; Propylene Carbonate, T = 2 weeks 50° C. storage): 3.463 % w/w
- Rofecoxib Concentration ([2]; Propylene Glycol Diacetate, T = 0 weeks): 0.519 % w/w
- Rofecoxib Concentration ([2]; Propylene Glycol Diacetate, T = 2 weeks 40° C. storage): 0.527 % w/w
- Rofecoxib Concentration ([2]; Propylene Glycol Diacetate, T = 2 weeks 50° C. storage): 0.520 % w/w
- solubility after storage ([2]; two weeks at 40° C. and 50° C., in the solvents in Table 12): remained soluble
- Solubility of Rofecoxib ([3]; in 1.25% Niacinamide (Aqueous), HPLC): No observable solubility
- Solubility of Rofecoxib ([3]; in 10% Sodium Lauryl Sulfate (Aqueous), HPLC): No observable solubility*
- Solubility of Rofecoxib ([3]; in Dehydrated Alcohol, HPLC): No observable solubility
- Solubility of Rofecoxib ([3]; in Diethyl Sebacate, HPLC): No observable solubility
- Solubility of Rofecoxib ([3]; in Diethylene Glycol Monoethyl Ether, HPLC): 0.5-1.0 % w/w
- Solubility of Rofecoxib ([3]; in Diisoproovl Adipate, HPLC): No observable solubility
- Solubility of Rofecoxib ([3]; in Dimethyl Isosorbide, HPLC): 2.5-3.5% w/w
- Solubility of Rofecoxib ([3]; in Ethyl Acetate, HPLC): <0.5% w/w
- Solubility of Rofecoxib ([3]; in Glycervl Monooleate, HPLC): No observable solubility
- Solubility of Rofecoxib ([3]; in Hydrochloric Acid (0.1 N), HPLC): No observable solubility
- Solubility of Rofecoxib ([3]; in Laureth-4, HPLC): No observable solubility
- Solubility of Rofecoxib ([3]; in Medium Chain Triglycerides, HPLC): No observable solubility
- Solubility of Rofecoxib ([3]; in N-Methvl-Pyrrolidone, HPLC): 4.4-5.4 % w/w
- Solubility of Rofecoxib ([3]; in Oleyl Alcohol, HPLC): No observable solubility
- Solubility of Rofecoxib ([3]; in PEG400, HPLC): 1.0-1.5 % w/w
- Solubility of Rofecoxib ([3]; in Polysorbate 80, HPLC): No observable solubility
- Solubility of Rofecoxib ([3]; in Propylene Carbonate, HPLC): 3.4-4.3 % w/w
- Solubility of Rofecoxib ([3]; in Propylene Glycol Diacetate, HPLC): <0.5 % w/w
- Solubility of Rofecoxib ([3]; in Sodium Hydroxide (0.1 N), HPLC): No observable solubility
- Solubility of Rofecoxib ([3]; in Sorbitol Solution, HPLC): No observable solubility
- Solubility of Rofecoxib ([3]; in Water pH 3, HPLC): No observable solubility
- Solubility of Rofecoxib ([3]; in Water pH 5.5, HPLC): No observable solubility
- Solubility of Rofecoxib ([3]; in Water pH 7.4, HPLC): No observable solubility
